Consider eleven compounds from EP4417607A1, “HETEROCYCLIC COMPOUND AS SOS1 INHIBITOR AND USES THEREOF” (Nanjing Zaiming Pharmaceutical Co., Ltd., priority 2021, dated 2023).

The first test relates to H358 cells. The test can be described thus: H358 cell proliferation inhibition (CellTiter-Glo luminescent cell viability assay). The format is cell-based. To be noted: 7 days. As to the method: The effect of the compounds of the present invention on H358 cell proliferation was assessed by CellTiter-Glo luminescent cell viability assay kit method.
H358 cells (ATCC, CRL-5807) were cultured in RPMI1640 (Hyclone, SH30256.01) complete medium containing 10% FBS (Gibco, 10100147) and 100 U/mL penicillin-streptomycin mixed solution (Gibco, 15140163). When the cells grew to 80-90%, the cells were digested, pipetted, and seeded in a 96-well plate (Corning, 4515) at 3000 cells/well (180 µL RPMI1640 complete medium), and then the 96-well plate was incubated overnight in an incubator at 37 °C with 5% CO2.
After incubation overnight, 20 µL of a diluted test compound was added to each well using a multi-channel pipette, and the 96-well plate was placed in an incubator at 37 °C with 5% CO2 for further culture. After 7 days, 100 µL of the supernatant was pipetted and discarded. 50 µL of CellTiter-Glo® 3D Cell Viability Assay liquid was added to each well. The plate was shaken at room temperature at 450 rpm for 30 min. After the cells were completely lysed, "Luminescence" on the microplate reader was selected for plate reading. In this experiment, the cell-free group (replaced with 1640 medium) was used as the 100% inhibition group, and the compound-free group in which the cell was added was used as the 0% inhibition group.
The inhibition percentage of H358 cell proliferation by the compounds of the present invention could be calculated by the following formula: [formula]
(§1) IC50 values of the compounds were calculated from 8 concentration points using XLfit (ID Business Solutions Ltd., UK) software by the following formula: Y = Bottom + (Top−Bottom)/(1+10^(∧)((logIC50−X)×slopefactor)) [formula]
Y is the inhibition percentage, X is the logarithmic value of the concentration of the test compound, Bottom is the minimum inhibition percentage, Top is the maximum inhibition percentage, and slope factor is the slope coefficient of the curve.
The compound “(R)-4-((1-(3-(difluoromethyl)-2-fluorophenyl)ethyl)amino)-8-ethoxy-6-(1-(fluoromethyl)cyclopropyl)-2-methylpyrido[4,3-d]pyrimidine-7(6H)-one [Example 10]” showed a concentration for half-maximal inhibition (IC50) of 41.6 nM.

The test is the same for the next values; noted with them: Homo sapiens, NCI-H358, 168 h, 7 days.
Take `Cc1nc(N[C@H](C)c2cccc(C#N)c2C)c2cn(N3CCOCC3)c(=O)c(-c3ccc(C#N)nc3)c2n1` [Example 64, (R)-5-(4-((1-(3-cyano-2-methylphenyl)ethyl)amino)-2-methyl-6-morpholine-7-oxo-6,7-dihydropyrido[4,3-d]pyrimidin-8-yl)pyridinecarbonitrile]: the IC50 was found to be 40.7 nM. `Cc1nc(N[C@H](C)c2cccc(C#N)c2C)c2cn(C3(CF)CC3)c(=O)c(-c3ccc(C#N)nc3)c2n1` [Example 67, (R)-5-(4-((1-(3-cyano-2-methylphenyl)ethyl)amino)-6-(1-(fluoromethyl)cyclopropyl)-2-methyl-7-oxo-6,7-dihydropyrido[4,3-d]pyrimidin-8-yl)pyridinecarbonitrile] displayed a concentration for half-maximal inhibition (IC50) of 118 nM. `Cc1nc(N[C@H](C)c2cccc(C(F)F)c2F)c2cn(C3(CF)CC3)c(=O)c(OC(=O)N3CCN(C)CC3)c2n1` [Example 86, (R)-4-((1-(3-(difluoromethyl)-2-fluorophenyl)ethyl)amino)-6-(1-(fluoromethyl)cyclopropyl)-2-methyl-7-oxo-6,7-dihydropyrido[4,3-d]pyrimidin-8-yl-4-methylpiperazine-1-carboxylate] returned an IC50 of 121 nM. Regarding `Cc1nc(N[C@H](C)c2cccc(C(F)F)c2F)c2cn(C3(CF)CC3)c(=O)c(N)c2n1` [Example 59, (R)-8-amino-4-((1-(3-(difluoromethyl)-2-fluorophenyl)ethyl)amino)-6-(1-(fluoromethyl)cyclopropyl)-2-methylpyrido[4,3-d]pyrimidine-7(6H)-one], the IC50 turned out to be 162 nM. In turn, `Cc1nc(N[C@H](C)c2cccc(C(F)F)c2F)c2cn(N3CCOCC3)c(=O)c(Oc3ccnc(C#N)c3)c2n1` [Example 118, (R)-4-((4-((1-(3-(difluoromethyl)-2-fluorophenyl)ethyl)amino)-2-methyl-6-morpholino-7-oxo-6,7-dihydropyrido[4,3-d]pyrimidin-8-yl)oxy)pyridinecarbonitrile] registered a 50% inhibitory concentration (IC50) of 136 nM.

In the next test the test system is p-ERK pathway in H358 cells. As to the kind of experiment: p-ERK pathway inhibition in H358 cells (Advanced phospho-ERK (Thr202/Tyr204) cellular kit, HTRF). It is filed as cell-based. Conditions: Homo sapiens, NCI-H358, 1 h compound incubation. Here is the method:
The effect of the compounds of the present invention on H358 cell p-ERK pathway was assessed by Advanced phospho-ERK (Thr202/Tyr204) cellular kit method.
The experimental procedures were summarized as follows: H358 cells (ATCC, CRL-5807) were cultured in RPMI1640 (ThermoFisher, A1049101) complete medium containing 10% FBS (Gibco, 10100147) and 100 U/mL penicillin-streptomycin mixed solution (Gibco, 15140163). When the coverage of the cells in the culture vessel reached 80-90%, the cells were pipetted and seeded in a 96-well plate (Corning, 3599) at 50000 cells/well (90 µL RPMI1640 complete medium), and the plate was left to stand for 5 min, cultured in an incubator at 37 °C with 5% CO2 for 6 h, replaced with a serum-free RPMI1640, and starved overnight.
After incubation overnight, 10 µL of a diluted test compound was added to each well using a multi-channel pipette, and the 96-well plate was cultured in an incubator at 37 °C with 5% CO2 for 1 h. The supernatant was poured. The cells were washed once with PBS. 50 µL of a lysis buffer (Advanced phospho-ERK (Thr202/Tyr204) cellular kit, 64AERPEH) was added to each well. The plate was shaken at room temperature at 450 rpm for 1 h. After the cells were completely lysed, 16 µL of the supernatant was added to a 384-well plate (PE, 6007299), mixed energy donor Eu and energy acceptor D2 (D2/Eu = 1:1) were added, and the plate was incubated at room temperature for 4 h. HTRF on the microplate reader was selected for plate reading, Ratio = Signal 665 nm/Signal 620 nm × 10^4. In this experiment, the cell-free group (replaced with 1640 medium) was used as the 100% inhibition group, and the compound-free group in which the cell was added was used as the 0% inhibition group.
The inhibition percentage of H358 cell p-ERK pathway by the compounds of the present invention could be calculated by the following formula: [formula]
as §1
Y is the inhibition percentage, X is the logarithmic value of the concentration of the test compound, Bottom is the minimum inhibition percentage, Top is the maximum inhibition percentage, and slope factor is the slope coefficient of the curve. The default fitted curve was used to fit the slope of the S-shaped curve to determine the IC50 value. Table 2. Results of p-ERK inhibition test by the compounds of the present invention
Regarding `COc1c(=O)n(C2(CF)CCN(C(C)=O)C2)cc2c(N[C@H](C)c3cccc(C#N)c3C)nc(C)nc12` (stereo partly drawn) [Example 17, 3-((1R)-1-((6-(1-acetyl-3-(fluoromethyl)pyrrolidin-3-yl)-8-methoxy-2-methyl-7-oxo-6,7-dihydropyrido[4,3-d]pyrimidin-4-yl)amino)ethyl)-2-methylbenzonitrile], half-maximal inhibition (IC50) required 33.7 nM. On to `Cc1nc(N[C@H](C)c2cccc(C(F)F)c2F)c2cn(C3(CF)CC3)c(=O)c(-c3cnn4c3CCC4)c2n1` [Example 170], for which the half-maximal inhibitory concentration (IC50) came to 138 nM. With `Cc1nc(N[C@H](C)c2cccc(C(F)F)c2F)c2cn(C3(CF)CC3)c(=O)c(N3CCOCC3=O)c2n1` [Example 172, (R)-4-(4-((1-(3-(difluoromethyl)-2-fluorophenyl)ethyl)amino)-6-(1-(fluoromethyl)cyclopropyl)-2-methyl-7-oxo-6,7-dihydropyrido[4,3-d]pyrimidin-8-yl)morpholine-3-one], the concentration for half-maximal inhibition (IC50) came out at 167 nM. The IC50 values of the last two compounds are within 1.5-fold of each other. Take `Cc1nc(N[C@H](C)c2cccc(S(F)(F)(F)(F)F)c2)c2cn(N3CCOCC3)c(=O)c(N3CCOCC3)c2n1` [Example 81, (R)-2-methyl-6,8-dimorpholine-4-((1-(3-(pentafluoro-λ^6-sulfanyl)phenyl)ethyl)amino)pyrido[4,3-d]pyrimidine-7(6H)-one]: half-maximal inhibition (IC50) required 77 nM.

For the compound `COC1(c2c(=O)n(C3(CF)CC3)cc3c(N[C@H](C)c4cccc(C(F)F)c4F)nc(C)nc23)CCOC1` (stereo partly drawn) [Example 140, 4-(((R)-1-(3-(difluoromethyl)-2-fluorophenyl)ethyl)amino)-6-(1-(fluoromethyl)cyclopropyl)-8-(3-methoxytetrahydrofuran-3-yl)-2-methylpyrido[4,3-d]pyrimidine-7(6H)-one], the IC50 stood at 131 nM.
